Source: US8137970B2, “Methods for inducing the differentiation of hematopoietic stem cells into megakaryocytes and platelets, and gene controlling the differentiation” (Ewha University-Industry Collaboration Foundation, priority 2008, dated 2012)

What was measured:
Format in all cases: cell-based, human
[1] = system: umbilical cord blood-derived CD34+ hematopoietic stem cells; assay: CD41 / CD61 megakaryocyte-specific marker expression by FACS in CD34+ hematopoietic stem cells cocultured with OP9; details: FIG. 2
Experimental: (§1) The OP9 stromal cell line was aliquoted into 6-well culture plate at a density of 1×10^5/well, and cultured for 24 hrs as a monolayer in a-MEM supplemented with 20% heat-inactivated FBS, 0.5% penicillin/streptomycin and 1.5 g/L sodium bicarbonate. When the OP9 stromal cell line was cultured as a monolayer, the media was replaced with StemSpan™ H3000 for CD34+ hematopoietic stem cell culture. Then, the CD34+ hematopoietic stem cells were aliquoted upper the op cells at a density of 3×10^5/well.
In order to confirm whether the differentiation of the umbilical cord blood-derived CD34+ hematopoietic stem cells into megakaryocytes and platelets was induced by treatment of the compound of Formula 1, the cells were treated with the compound of Formula 1 and the known hematopoietic stem cell differentiation inducers, CC200 and Megacult-C, singly or in a mixture. Then, expression of megakaryocyte-specific marker, CD41 or CD61 was analyzed.
The CD34+ hematopoietic stem cells cocultured with OP9 cells through Example 1 were treated with each of the hematopoietic stem cell differentiation inducers at a following concentration; CC200 (rhTPO 50 ng/ml, rhSCF 50 ng/ml, IL-3 10 ng/ml), Megacult-C (TPO 5 ng/ml), and (R)-NALPCE 35 ug/ml in culture media.
After 8 days, the culture media were centrifuged (1,000 rpm, 10 min), and the cell pellets thus obtained were washed three times with PBS. The cells were incubated with 20 μl of Fluorescein isothiocyanate (FITC)-conjugated mouse anti-human monoclonal CD41 antibody (DAKOCycomation, Denmark) or 20 μl of Fluorescein isothiocyanate(FITC)-conjugated mouse anti-human monoclonal CD61 antibody (DAKOCycomation, Denmark) in 200 μl of 0.01% bovine serum albumin (BSA)-PBS at 37° C. for 30 min while spinning to realize homogeneous fluorescent staining. After centrifugation (1,000 rpm, 10 min), the cell pellets thus obtained were washed three times with 0.01% bovine serum albumin (BSA) in PBS. Fluorescence was analyzed on a fluorescence-activated cell sorter (FACS Aria) using a Cellquest program. Results are means±SD (n=3). […]

[2] = system: umbilical cord blood-derived CD34+ hematopoietic stem cell; assay: Morphological change and polyploidization of CD34+ hematopoietic stem cells cocultured with OP9 stromal cells
Experimental: as §1
In order to confirm the distinct morphological change of the umbilical cord blood-derived CD34+ hematopoietic stem cell treated with the compound of Formula 1, the cells were treated with the compound of Formula 1 and the known hematopoietic stem cell differentiation inducers, CC100, CC200, IL-3, IL-6, TPO and SCF, so as to investigate morphological changes and polyploidization of the CD34+ hematopoietic stem cell.
The CD34+ hematopoietic stem cells cocultured with OP9 cells through Example 1 were treated with each of the materials. The cells were treated with each of the hematopoietic stem cell differentiation inducers at a following concentration; CC100 (rhFlt-3 ligand 100 ng/ml, SCF 100 ng/ml, IL-3 20 ng/ml, IL-6 20 ng/ml), CC200 (rhTPO 50 ng/ml, rhSCF 50 ng/ml, IL-3 10 ng/ml), Megacult-C (TPO 5 ng/ml, IL-3 1 ng/ml, IL-6 2 ng/ml), IL-3 of 10 ng/ml, IL-6 of 20 ng/ml, SCF of 50 ng/ml, and (R)-NALPCE of 45 μg/ml.
After 8 days, the cells were photographed by Mag. ×200 to examine the morphological changes (FIG. 1).
In addition, polyploidization of the cells was analyzed by FACS (flow cytometer). The cells were harvested and resuspended with 1×PBS containing 0.1% saponin. 10 mg/mL RNAse A and propidium iodide solution were added thereto. Thereafter, the cells were incubated at room temperature for 30 min. The cells were analyzed by FACS caliber flow cytometer and Cell quest software. Results are means±SD (n=3). Similar results were obtained in three independent experiments (FIG. 1).

K562 cells [3] = assay: Oligonucleotide array (genechip) of gene expression during megakaryocytic differentiation; details: K562 cells treated with 50 μg/ml vs undifferentiated cells
Experimental: (§2) The OP9 stromal cell line was aliquoted into 6-well culture plate at a density of 1×10^5/well, and cultured for 24 hrs as a monolayer in a-MEM supplemented with 20% heat-inactivated FBS, 0.5% penicillin/streptomycin and 1.5 g/L sodium bicarbonate. When the OP9 stromal cell line was cultured as a monolayer, the K562 cells were aliquoted upper the OP9 cells at a density of 1×10^5/well, and cocultured with the OP9 cells. These K562 cells were treated with (R)-NALPLE (see Korean Patent No. 10-0688261) at a concentration of 50 μg/ml to induce megakaryocytic differentiation.
mRNAs were extracted from normal K562 cells and compound-treated K562 cells by the method of Example 5. To understand the genetic events during megakaryocytic development, the K562 cells were incubated for 6, 12, 24, 48, 72, 96, and 120 hr with the compound, and mRNAs were extracted from each cell using an RNeasy mini kit (Qiagen, USA). A genechip analysis was performed using 1 μg of RNA and an oligonucleotide array from Macrogen.
From analyzed data, total 67 genes, of which expression levels were increased more than 5-fold in differentiated K562 cells, were assigned. The functional categories included transcription factor, receptor, miscellaneous function, select calcium binding protein, phosphatase, signaling molecule, select regulatory factor, protease, nucleic acid binding, cytoskeleton protein, kinase, cell adhesion molecule, transferase, synthase, hydrolase defense/immunity and molecular function unclassified. Among these genes, selected were 4 genes of which expression levels were increased more 10 fold in differentiated cells, such as KLF2 (Kiruppel-like factor2), LOC138255 (OTTHUMP00000021439), GDF15 (growth differentiation factor 15) and INHBE (inhibin, betaE).

K562 cells [4] = assay: Polyploidization (FACS) and morphology of shRNA-transfected K562 cells cocultured on OP9 in (R)-NALPCE; details: 50 μg/mL for 4 days, cocultured on OP9, FIG. 4
Experimental: To confirm whether the selected genes regulate the differentiation into megakaryocyte and platelets, shRNAs capable of inhibiting expressions of the KLF2, LOC138255, GDF15, and INHBE genes were constructed, and K562 cells were transfected with shRNAs.
The transfected K562 cells were sorted by FACS Aria flow cytometer, and cocultured upper OP9 stromal cells in 50 μg/mL of (R)-NALPCE for 4 days. Then, the cells were analyzed with a fluorescence-activated cell sorter using Cell quest, and photographed by Mag. ×200. Results are means±SD (n=3). Similar results were obtained in three independent experiments (FIG. 4).

K562 cells [5] = assay: RT-PCR of KLF2, LOC138255, GDF15 and INHBE mRNA during megakaryocytic development; details: 50 μg/ml, incubated 6, 12, 24, 48, 72, 96 and 120 hr, FIG. 3
Experimental: as §2
To analyze the expression patterns of the selected 4 genes, KLF2, LOC138255, GDF15, and INHBE during megakaryocytic development, RT-PCR was performed to measure the mRNA level in cells.
In order to specifically analyze their expression patterns during megakaryocytic development, the K562 cells were incubated for 6, 12, 24, 48, 72, 96, and 120 hr with the compound ((R)-NALPLE 50 μg/ml). Total cellular RNA was extracted from the K562 cells using an RNeasy mini kit following the manufacturer's instructions using M-MLV Reverse Transcriptase (Promega, Madison, Wis.), and RT-PCR was performed.
Amplification conditions were followed by 20 cycles (for GAPDH) or 25 cycles (for KLF2, LOC138255, GDF15, and INHBE) at 95° C. for 30 seconds, 60° C. for 60 seconds, and 72° C. for 90 seconds. The primers used were the following: • KLF2 forward primer (SEQ ID NO.1): 5′-[…]-3′ • reverse primer (SEQ ID NO.2);5′-CATGTGCCGTTTCATGTGC-3′ • LOC138255 forward primer )SEQ ID NO.3); 5′-[…]-3′ • reverse primer )SEQ ID NO. 4);5′-[…]-3′ • GDF15 forward primer 9SEQ ID NO. 5); 5′-[…]-3′ • reverse primer (SEQ ID NO. 6): 5′-[…]-3′ • INHBE forward primer (SEQ ID NO. 7); 5′-[…]-3′ • reversre primer (SEQ ID NO. 8);5′[…]-3′ • GARDH forward primer (SEQ ID NO. 9);5′-[…]-3′ • reverse primer (SEQ ID NO. 10);5′-[…]-3′
After PCR reaction, each reaction mixture was analyzed by 1% agarose gel electrophoresis, and the bands were visualized by ethidium bromide staining (FIG. 3).

Compound	expression level of CD41 or CD61, CC200 together with the compound vs single treatment of CC200 ([1]; 35 ug/ml plus CC200, after 8 days)	expression level of CD41 or CD61, megacult-C together with the compound vs single treatment of megacult-C ([1]; 35 ug/ml plus Megacult-C (TPO 5 ng/ml), after 8 days)	expression level of megakaryocyte-specific marker CD41 or CD61, compared with cells treated with CC200 or megacult-C ([1]; single treatment 35 ug/ml, after 8 days)	morphological change (morphological feature of megakaryocytes) ([2]; 45 μg/ml, after 8 days, cocultured with OP9 cells, photographed Mag. x200, FIG. 1)	polyploidization (FACS, propidium iodide) ([2]; 45 μg/ml, cocultured with OP9 cells, FIG. 1)	megakaryocytic differentiation together with CC200, compared to each single treatment ([2]; addition of compound to CC200 (rhTPO 50 ng/ml, rhSCF 50 ng/ml, IL-3 10 ng/ml))	megakaryocytic differentiation together with Megacult-C, compared to each single treatment ([2]; addition of compound to Megacult-C (TPO 5 ng/ml, IL-3 1 ng/ml, IL-6 2 ng/ml))	GDF15 expression increase in differentiated cells (oligonucleotide array) (K562 cells [3]) [fold]	INHBE expression increase in differentiated cells (oligonucleotide array) (K562 cells [3]) [fold]	KLF2 expression increase in differentiated cells (oligonucleotide array) (K562 cells [3]) [fold]	LOC138255 expression increase in differentiated cells (oligonucleotide array) (K562 cells [3]) [fold]	polyploidization of non-transfected K562 cells (K562 cells [4])	GDF15 gene expression pattern (RT-PCR) (K562 cells [5])	INHBE gene expression pattern (RT-PCR) (K562 cells [5])	KLF2 gene expression pattern (RT-PCR) (K562 cells [5])	LOC138255 gene expression pattern (RT-PCR) (K562 cells [5])
CCCCCCCCCCCCCCCCCC(=O)N[C@H](COP(=O)([O-])OCC[N+](C)(C)C)C(=O)OC [compound of Formula 1, N-steroyl-O-phosphocholine-D-serine methyl ester]	higher	higher	higher	increase in cytoplasmic mass and cell size	high nucleus number due to polyploidization through endomitosis	more induced megakaryocytic differentiation	more induced megakaryocytic differentiation	> 10	> 10	> 10	> 10	high nucleus number due to polyploidization through the endomitosis	–	–	–	–
N-steroyl-O-phosphocholine-D-serine methyl ester [compound of Formula 1]	–	–	–	–	–	–	–	–	–	–	–	–	markedly expressed at 12 to 96 hr	markedly expressed at 12 to 96 hr	markedly expressed at 12 to 96 hr	markedly expressed at 12 to 96 hr
